# Experimental data as given in US20240165082A1, “ORALLY ADMINISTERED COMPOSITIONS FOR CANCER TREATMENT” (priority 2021, published 2024).
# Tests used:
# in vitro = details: human, pH 7.4
# Protocol: Phosphate-buffered saline (PBS, Cat. #10010 from ThermoFisher Scientific, Waltham, MA, USA) was adjusted to pH 7.4 and used as the receiver buffer. […] Tissues were received and stored at 4° C. until use. The tissue inserts were transferred to plates containing MATTEK SMI-100 culture medium using sterile technique and placed in a humidified incubator (37±1° C., 5% CO2) overnight for recovery prior to use, according to MATTEK protocols.
# The control was PBS, pH 7.4 buffer for baseline endogenous histamine. Reference B was histamine α,α,β,β-d4 dihydrochloride (1 mg/mL) in PBS, pH 7.4. Reference A was a 300 μL dose added to the apical side of the tissue. […] In each trial, a 100 μL sample was immediately collected as the 0-minute donor sample and was not replenished. The pharmaceutical composition, the control, and Reference B were dosed with 200 μL, and 10 μL donor samples and collected at each time point (0, 15, 30, 60, and 120 minutes) without replacement. Six replicates of each treatment were conducted. […] The assay plates were transferred to a humidified incubator (37±1° C., 5% CO2) between sampling time points. […] Upon completion of the study, all samples were stored at −80° C. until analysis by LC-MS/MS. […]
# The cumulative receiver concentration of each compound at each time point (Cc) was calculated as the sum of the measured concentration at that time point (Cm) and 0.2/5 of the measured concentrations at the previous time points (a 0.2 mL receiver sample out of the 5 mL total receiver volume was withdrawn and replaced at each time point, except for the final time point which was not replaced).
# The Papp for each compound was calculated as follows: Papp=(dCr/dt)×Vr/(A×Cn), where dCr/dt is the slope of the cumulative receiver concentration (in μM) vs. time (t); Vr is the volume of the receiver compartment (5 cm^3); A is the exposed surface area for permeation (0.6 cm^2); and Cn is the nominal concentration in the donor compartment (in μM).
# The recovery (%) at the final timepoint for histamine was calculated as follows: Recovery=100×((Vr120×Cr^final)+(Vd^initial×Cd^initial)+(Vd^15×Cd^15)+(Vd^30×Cd^30)+(Vd^60×Cd^60)+(Vd^final×Cd^final))/(Vd×Cn).
# The flux was calculated using the following equation: Flux(overall)=dCc/dt×Vr/A; where dCc/dt is the slope of the cumulative receiver concentration (in μM) vs. time (t); Vr is the volume of the receiver compartment (in cm^3); t is the duration of the flux period in the linear range (in minutes); and A is the diffusional surface area of the exposed tissue surface (0.6 cm^2).
# [1] = oral administration; inferred from Papp of Example 12
# Text: Previous studies of the drug permeability data in Caco-2 cells for predicting human drug absorption data plotted apparent permeability (Papp) values against the drug fraction absorbed in humans expressed as a percentage of the administered dose (FA). […] (Turco, et al. Toxicology in Vitro, 2010, 13-20).
Compound,recovery at 120 min (in vitro) [%],"absorbed in the small intestine, amount of the administered dosage [1]",Papp A→B at 120 min (in vitro) [nm/s],"Papp A→B at 120 min, 89969 μM (in vitro) [nm/s]"
CC(C)NCC(O)COc1ccc(CC(N)=O)cc1 (centres unmarked) [atenolol],89.1 ± 5.2,–,–,–
Cl.Cl.NCCc1c[nH]cn1 [histamine dihydrochloride],93.6,greater than 85%,187 ± 15,187 ± 15
